From publication PMC11673046, “Characterization of a Pyranose Oxidase/C-Glycoside Oxidase from Microbacterium sp. 3H14, Belonging to the Unexplored Clade II of Actinobacterial POx/CGOx” (Biomolecules, 2024)
Like-named read-outs stand apart in the source and are kept apart here.

Columns and labels:
Format in all cases: biochemical, Microbacterium sp. 3H14
MPOx [1] = target: MPOx
MPOx [2] = system: MPOx; remark: listed apart in the source
MPOx [3] = system: MPOx; remark: listed apart in the source

SMILES	Ki (MPOx [1])	Km (MPOx [2])	Km (MPOx [3])
O=C(CCc1ccc(O)c(O)c1)c1c(O)cc(O)c([C@@H]2O[C@H](CO)[C@@H](O)[C@H](O)[C@H]2O)c1O [Aspalathin]	300 ± 50 µM	85 ± 14 µM	
OC[C@H]1OC(O)[C@H](O)[C@@H](O)[C@@H]1O (stereo partly drawn) [D-glucose]			660 ± 30 µM
OC1OC[C@@H](O)[C@H](O)[C@H]1O (stereo partly drawn) [D-xylose]			19000 ± 1000 µM
O=C(CCc1ccc(O)cc1)c1c(O)cc(O)cc1O[C@@H]1O[C@H](CO)[C@@H](O)[C@H](O)[C@H]1O [Phlorizin]	480 ± 50 µM	57 ± 6 µM	
